Test results from patent US9687522B2, “Methods of treating a subject afflicted with an autoimmune disease using predictive biomarkers of clinical response to glatiramer acetate therapy in multiple sclerosis” (TEVA PHARMACEUTICAL INDUSTRIES, LTD., priority 2010, dated 2017).

Tests used:
[1] = test system: IL-10; test: IL-10 by ELISA in ex-vivo PBMC supernatant of GA-treated MS patients; type: cell-based, human
Experimental: (§1) Approximately 60 cc of blood was obtained by venipuncture from each MS patient pre-treatment and at successive time points during treatment (3 months, 6 months, 9-12 months and 24 months). PBMC were purified using Ficoll-Hypaque gradients as described in the supplier's protocol (ICN Biomedicals Inc. Ohio, USA). Samples from collaborating centers were sent via overnight FedEx™ delivery at room temperature and processed immediately upon arrival.
(§2) 2×10^5 PBMC/well were seeded in 96 well U-bottom micro titer plate in the absence of antigen (unstimulated condition) (US) or the presence of GA at 40 and 100 μg/ml (Teva Pharmaceutical Industries, Ltd., Israel), tetanus toxoid (TT 5 μg) obtained from UMASS (University of Mass, Worcester, Mass.). The latter was used as a control antigen. Supernatants were collected from cultured cells at days 1, 3 and 5 for various assays. After 5 days, 1 μCi ^3H-thymidine was added. Cells were harvested 18 hours later using TOMTEC cell harvester (TOMTEC, Hamden Conn.). Incorporated radioactivity was measured using a liquid Scintillation counter (Wallac MicroBeta Trilux, PerkinElmer, Boston, Mass.).
(§3) Interleukin-18 and caspase-1 levels were detected by human ELISA kits (Sandwich ELISA, Bender Nedaystems, USA). The sensitivity of the ELISA was 9.2 and 3.3 pg/ml for IL-18 and caspase-1 respectively. TGF-β, TNF-α, IL-4, IFN-γ, IL-17 and IL-10 levels were detected by human ELISA kits from ebioscience (San Diego Calif., 92121 USA). The sensitivity of the ebioscience kits were 60 pg/ml, 4 pg/ml, 2 pg/ml, 4 pg/ml, 4 pg/ml and 2 pg/ml respectively. BDNF was detected by the Human BDNF ELISA kit from Chemicon International (catalog #CYT306). The sensitivity of the BDNF ELISA was 7.8 pg/ml. […] Duplicates should be within 20% of the mean.

[2] = test system: IL-10; test: Serum IL-10 by ELISA in GA-treated MS patients; type: in vivo, human
Excerpt: as §1, §3

[3] = test system: IL-17; test: IL-17 by ELISA in ex-vivo PBMC supernatant of GA-treated MS patients; type: cell-based, human
Experimental: as §1, §2, §3

[4] = test system: BDNF; test: Serum BDNF by ELISA in GA-treated MS patients; type: in vivo, human; conditions: GA-R and GA-HR/NR, all treatment time points
Excerpt: as §1, §3

[5] = test system: IFN-γ; test: IFN-γ ELISPOT in ex-vivo PBMC of GA-treated MS patients; type: cell-based, human; conditions: CD3/CD28 stimulated PBMC
Excerpt: as §1
Human IFN-γ (Th1 indicator) and IL-4 (Th2 indicator) were measured by the ELISPOT assay according to the manufacturer's protocol (BD Biosciences, San Diego, Calif., USA). Briefly, ELISPOT plates (PVDF plate, Millipore Corporation, MA, USA) were coated with 100 μl/well of 5 μg/ml capture antibody at 4° C. over night. The plates were then washed with PBS, and incubated with 200 μl/well of blocking solution (culture medium) for 2 hours. PBMC (2×10^5 cells/well for IFN-γ and 4×10^5 cells/well for IL-4 detection) and antigen (GA 40 and 100 μg/ml, TT 5 μg/ml, CD3Ab (2.5 μg/ml)/CD28 Ab (1 μg/ml)) was added and cultured overnight at 37° C. in a 5% CO2 incubator. Samples were tested in triplicate wells in response to each antigen. After overnight culture, the plates were washed twice with deionized water and three times with PBS, then incubated with 100 μl of 2.0 μg/ml biotinylated antibody for 2 hours at room temperature. The plates were then washed three times with wash buffer (0.05% Tween-20 PBS), and incubated with 100 μl of 1:100 dilution of Avidin-HRP for 1 hour at room temperature and washed three times with wash buffer. Finally 100 μl of AEC (3-amino-9-ethyl-carbazole) substrate was added and the reaction was stopped by washing plates with distilled water. Spots were counted and analyzed by CTL Analyzers LLC ELISPOT Plate Reader (Cleveland, Ohio, USA).

## Glatiramer acetate [GA]
[1]; HR/NR, 3 mo
  Supernatant IL-10 level: 160 ± 65 pg/mL
[1]; HR/NR, 6 mo
  Supernatant IL-10 level: 153 ± 69 pg/mL
[1]; HR/NR, 9-12 mo
  Supernatant IL-10 level: 181 ± 22 pg/mL
[1]; HR/NR, 24 mo
  Supernatant IL-10 level: 200 ± 59 pg/mL
[1]; HR/NR, Pre-Rx
  Supernatant IL-10 level: 143 ± 61 pg/mL
[1]; R, 3 mo
  Supernatant IL-10 level: 200 ± 65 pg/mL
[1]; R, 6 mo
  Supernatant IL-10 level: 310 ± 64 pg/mL
[1]; R, 9-12 mo
  Supernatant IL-10 level: 249 ± 70 pg/mL
[1]; R, 24 mo
  Supernatant IL-10 level: 255 ± 45 pg/mL
[1]; R, Pre-Rx
  Supernatant IL-10 level: 170 ± 60 pg/mL
[2]; HR/NR, 3 mo
  Serum IL-10 level: 40 ± 7.0 pg/mL
[2]; HR/NR, 6 mo
  Serum IL-10 level: 37 ± 8.3 pg/mL
[2]; HR/NR, 9-12 mo
  Serum IL-10 level: 40 ± 7.0 pg/mL
[2]; HR/NR, 24 mo
  Serum IL-10 level: 37.6 ± 5 pg/mL
[2]; HR/NR, Pre-Rx
  Serum IL-10 level: 38 ± 9 pg/mL
[2]; R, 3 mo
  Serum IL-10 level: 47 ± 8.1 pg/mL
[2]; R, 6 mo
  Serum IL-10 level: 67 ± 11 pg/mL
[2]; R, 9-12 mo
  Serum IL-10 level: 69.8 pg/mL
[2]; R, 24 mo
  Serum IL-10 level: 56 ± 18 pg/mL
[2]; R, Pre-Rx
  Serum IL-10 level: 32 ± 4.5 pg/mL
[2]; serum, change from baseline
  Δ IL-10 6 months, Median (Non-Responders): −1.5
  Δ IL-10 6 months, Median (Responders): 15
  Δ IL-10 9 months, Median (Non-Responders): −2
  Δ IL-10 9 months, Median (Responders): 42
  Δ IL-10 24 months, Median (Non-Responders): 1
  Δ IL-10 24 months, Median (Responders): 29
[3]; HR/NR, 3 mo
  Supernatant IL-17 level: 160 ± 25 pg/mL
[3]; HR/NR, 6 mo
  Supernatant IL-17 level: 146 ± 25 pg/mL
[3]; HR/NR, 9-12 mo
  Supernatant IL-17 level: 129 ± 7.3 pg/mL
[3]; HR/NR, 24 mo
  Supernatant IL-17 level: 179 ± 21 pg/mL
[3]; HR/NR, Pre-Rx
  Supernatant IL-17 level: 178 ± 25 pg/mL
[3]; R, 3 mo
  Supernatant IL-17 level: 184 ± 40 pg/mL
[3]; R, 6 mo
  Supernatant IL-17 level: 60 ± 35 pg/mL
[3]; R, 9-12 mo
  Supernatant IL-17 level: 134 ± 12 pg/mL
[3]; R, 24 mo
  Supernatant IL-17 level: 167 ± 18 pg/mL
[3]; R, Pre-Rx
  Supernatant IL-17 level: 176 ± 31 pg/mL
[4]
  Serum BDNF levels, change during GA treatment: did not show significant changes during treatment from baseline in either group
[5]; HR/NR, 3 mo
  IFN-γ expression (ELISPOT, mean number of spots): 206 ± 24
[5]; HR/NR, 6 mo
  IFN-γ expression (ELISPOT, mean number of spots): 233 ± 26
[5]; HR/NR, 9-12 mo
  IFN-γ expression (ELISPOT, mean number of spots): 218 ± 34
[5]; HR/NR, 24 mo
  IFN-γ expression (ELISPOT, mean number of spots): 186 ± 35
[5]; HR/NR, Baseline
  IFN-γ expression (ELISPOT, mean number of spots): 192 ± 26
[5]; R, 3 mo
  IFN-γ expression (ELISPOT, mean number of spots): 182 ± 18
[5]; R, 6 mo
  IFN-γ expression (ELISPOT, mean number of spots): 150 ± 15
[5]; R, 9-12 mo
  IFN-γ expression (ELISPOT, mean number of spots): 110 ± 19
[5]; R, 24 mo
  IFN-γ expression (ELISPOT, mean number of spots): 86 ± 14
[5]; R, Baseline
  IFN-γ expression (ELISPOT, mean number of spots): 197 ± 28
